The values that follow come from article PMC3229842 (Chemmedchem, 2011).

Broadly, the pEC50 is −log10 of the EC50, conventionally taken in molar units.

Experiment [1] has as its system T. brucei (S427 single marker line). As to the kind of experiment: microbe, parasite or virus in culture. In kind it is cell-based, Trypanosoma brucei.
Another experiment concerns T. brucei. To be noted: cited from earlier work.
Experiment [2] deals with MRC-5 cell line (normal diploid human fibroblasts). As to the kind of experiment: cells. Format: cell-based. To be noted: MRC5, read-out: pEC50 MRC-5 (converted).

pEC50: −log10 of the molar value. Like-named read-outs stand apart in the source and are kept apart here. A value given as a limit tells only on which side of the number the result lay.

As for `N=C(N)c1ccc(OCCCCCOc2ccc(C(=N)N)cc2)cc1` [Pentamidine], in experiment [1] (Trypanosoma brucei, read-out: pEC50 T. brucei (converted)), the EC50 was 3.55 nM.
In the case of `NCCCC(N)(C(=O)O)C(F)F` (centres unmarked) [eflornithine], the “Hill slope (s)” value in the experiment with T. brucei is recorded as 4.0.
As for `COc1cccc2c1C(=O)c1c(O)c3c(c(O)c1C2=O)C[C@@](O)(C(=O)CO)C[C@@H]3O[C@H]1C[C@H](N)[C@H](O)[C@H](C)O1` [doxorubicin], in experiment [2], the EC50 was 70.8 nM.
`O=C(Cc1ccc(Cl)c(Cl)c1)Nc1ccccc1N1CCCC1` [Compound 44, 2-(3,4-Dichlorophenyl)-N-[2-(pyrrolidin-1-yl)phenyl]acetamide]: in experiment [1], the “fold loss of potency relative to 38” value is recorded as more than 66 fold. For the same compound, in experiment [1] (Trypanosoma brucei, 72 h, read-out: EC50 T. b. brucei), the pEC50 was 4.75.
